According to US8969325B2, “TRPV1 antagonists” (AbbVie Inc., priority 2011, dated 2015):

Assays:
[1] = target: T1, human TRPV1 (Homo sapiens (Human), UniProt Q8NER1); test: Capsaicin Activation Assay (intracellular Ca2+, FLIPR); type: cell-based; settings: recombinant HEK293 cells expressing hTRPV1, 50 nM capsaicin
Outline: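 Ca2+ fluorescence was recorded by FLIPR every 1 to 5 seconds in HEK293 cells, clonally selected for stable human TRPV1 expression and plated one day ahead. Test compounds came as serial dilutions of 10 mM DMSO stocks.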

[2] = target: T1, human TRPV1; test: Acid Activation Assay (pH 5.0, intracellular Ca2+, FLIPR); type: cell-based; settings: percentage of the maximal pH 5.0-induced response remaining; recombinant HEK293 hTRPV1 cells; maximum concentration tested 37.5 μM
Outline: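 Readout: peak [Ca2+]i fluorescence over baseline on FLIPR, expressed as percentage remaining of the maximal pH 5.0-evoked signal. Stable hTRPV1-HEK293 cells with Calcium-4 dye received compound (12 half-log concentrations, maximum 37.5 μM) 3 min before acidic pH 5.0 buffer.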

T1 sequence (Q8NER1 whole entry): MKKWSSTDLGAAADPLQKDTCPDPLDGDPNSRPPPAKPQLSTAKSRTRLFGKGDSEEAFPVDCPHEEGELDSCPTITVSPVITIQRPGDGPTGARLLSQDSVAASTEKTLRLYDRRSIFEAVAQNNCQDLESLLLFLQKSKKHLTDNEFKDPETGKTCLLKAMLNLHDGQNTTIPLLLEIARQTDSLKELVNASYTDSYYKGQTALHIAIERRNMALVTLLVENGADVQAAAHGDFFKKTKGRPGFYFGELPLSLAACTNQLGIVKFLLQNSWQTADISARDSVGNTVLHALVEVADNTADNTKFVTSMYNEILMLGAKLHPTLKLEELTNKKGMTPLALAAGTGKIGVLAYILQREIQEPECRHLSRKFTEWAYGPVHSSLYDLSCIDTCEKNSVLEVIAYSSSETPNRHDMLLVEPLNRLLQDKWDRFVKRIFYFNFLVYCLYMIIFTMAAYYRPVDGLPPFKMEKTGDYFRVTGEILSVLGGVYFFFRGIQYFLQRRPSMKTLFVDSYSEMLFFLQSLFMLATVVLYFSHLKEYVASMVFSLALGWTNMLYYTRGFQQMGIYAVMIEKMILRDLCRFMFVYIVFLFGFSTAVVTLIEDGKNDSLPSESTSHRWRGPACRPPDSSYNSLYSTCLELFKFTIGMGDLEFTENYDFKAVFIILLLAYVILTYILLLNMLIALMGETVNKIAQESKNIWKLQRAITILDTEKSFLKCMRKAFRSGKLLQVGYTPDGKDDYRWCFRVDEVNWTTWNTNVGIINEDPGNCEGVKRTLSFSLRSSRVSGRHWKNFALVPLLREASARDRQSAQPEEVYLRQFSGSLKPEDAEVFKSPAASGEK

| SMILES | IC50 [1] | human TRPV1 H^+ (max % remain) [2] |
| --- | --- | --- |
| CCC1(CC)C[C@@H](NC(=O)Nc2ccc3c(c2)NC(=O)N(CCO)C3)c2ccc(C(F)(F)F)cc2O1 [Example 46, 1-[(4R)-2,2-diethyl-7-(trifluoromethyl)-3,4-dihydro-2H-chromen-4-yl]-3-[3-(2-hydroxyethyl)-2-oxo-1,2,3,4-tetrahydroquinazolin-7-yl]urea] | 367 nM | 0% |
| CN1Cc2ccc(NC(=O)N[C@@H]3CC(CF)(CF)Oc4c(F)cc(F)cc43)cc2NC1=O [Example 187, 1-[(4R)-6,8-difluoro-2,2-bis(fluoromethyl)-3,4-dihydro-2H-chromen-4-yl]-3-(3-methyl-2-oxo-1,2,3,4-tetrahydroquinazolin-7-yl)urea] | 760 nM | 50% |
| O=C(Nc1ccc2c(c1)NC(=O)N(CCO)C2)N[C@H]1CC2(CCC2)Oc2ccc(F)cc21 [Example 56, 1-[(4S)-6-fluoro-3,4-dihydrospiro[chromene-2,1′-cyclobutan]-4-yl]-3-[3-(2-hydroxyethyl)-2-oxo-1,2,3,4-tetrahydroquinazolin-7-yl]urea] | 700 nM | 67% |
| O=C1CCc2ccc(NC(=O)N[C@H]3CC4(CCC4)Oc4ccc(F)cc43)cc2N1 [Example 242, 1-[(4S)-6-fluoro-3,4-dihydrospiro[chromene-2,1′-cyclobutan]-4-yl]-3-(2-oxo-1,2,3,4-tetrahydroquinolin-7-yl)urea] | 86 nM | 30% |
| CC1(C)C[C@@H](NC(=O)Nc2ccc3c(c2)NC(=O)CO3)c2ccc(Cl)cc2O1 [Example 114, 1-[(4R)-7-chloro-2,2-dimethyl-3,4-dihydro-2H-chromen-4-yl]-3-(3-oxo-3,4-dihydro-2H-1,4-benzoxazin-6-yl)urea] | 56 nM | 99% |
| CC1(C)C[C@@H](NC(=O)Nc2ccc3c(c2)NC(=O)N(CCO)C3)c2cccc(C(F)(F)F)c2O1 [Example 307, 1-[(4R)-2,2-dimethyl-8-(trifluoromethyl)-3,4-dihydro-2H-chromen-4-yl]-3-[3-(2-hydroxyethyl)-2-oxo-1,2,3,4-tetrahydroquinazolin-7-yl]urea] | 1300 nM | 37% |
| O=C1CCc2ccc(NC(=O)N[C@@H]3CCc4cc(F)ccc43)cc2N1 [Example 240, 1-[(1R)-5-fluoro-2,3-dihydro-1H-inden-1-yl]-3-(2-oxo-1,2,3,4-tetrahydroquinolin-7-yl)urea] | 37 nM | 25% |
| Cn1c(=O)ccc2c(NC(=O)N[C@@H]3CCc4cc(C(C)(C)C)ccc43)cccc21 [Example 68, 1-[(1R)-5-tert-butyl-2,3-dihydro-1H-inden-1-yl]-3-(1-methyl-2-oxo-1,2-dihydroquinolin-5-yl)urea] | 20 nM | 34% |
| CN1C(=O)CCc2ccc(NC(=O)N[C@@H]3CC(CF)(CF)Oc4ccc(F)cc43)cc21 [Example 267, 1-[(4R)-6-fluoro-2,2-bis(fluoromethyl)-3,4-dihydro-2H-chromen-4-yl]-3-(1-methyl-2-oxo-1,2,3,4-tetrahydroquinolin-7-yl)urea] | 380 nM | 63% |
| Cn1c(=O)ccc2c(NC(=O)N[C@@H]3CCOc4c3cccc4C(F)(F)F)cccc21 [Example 97, 1-(1-methyl-2-oxo-1,2-dihydroquinolin-5-yl)-3-[(4R)-8-(trifluoromethyl)-3,4-dihydro-2H-chromen-4-yl]urea] | 17 nM | 26% |
| CCC1(CC)C[C@@H](NC(=O)Nc2cccc3c2CNC(=O)N3C)c2ccccc2O1 [Example 140, 1-[(4R)-2,2-diethyl-3,4-dihydro-2H-chromen-4-yl]-3-(1-methyl-2-oxo-1,2,3,4-tetrahydroquinazolin-5-yl)urea] | 11 nM | 27% |
| CN1C(=O)CCc2ccc(NC(=O)N[C@@H]3CC(C)(C)Oc4cc(Br)ccc43)cc21 [Example 297, 1-[(4R)-7-bromo-2,2-dimethyl-3,4-dihydro-2H-chromen-4-yl]-3-(1-methyl-2-oxo-1,2,3,4-tetrahydroquinolin-7-yl)urea] | 130 nM | 67% |
| CCC1(CC)C[C@@H](NC(=O)Nc2ccc3c(c2)NC(=O)N(CCO)C3)c2cc(F)ccc2O1 [Example 50, 1-[(4R)-2,2-diethyl-6-fluoro-3,4-dihydro-2H-chromen-4-yl]-3-[3-(2-hydroxyethyl)-2-oxo-1,2,3,4-tetrahydroquinazolin-7-yl]urea] | 45 nM | 0% |
| CN1Cc2ccc(NC(=O)N[C@@H]3CC(CF)(CF)Oc4c(F)cccc43)cc2NC1=O [Example 198, 1-[(4R)-8-fluoro-2,2-bis(fluoromethyl)-3,4-dihydro-2H-chromen-4-yl]-3-(3-methyl-2-oxo-1,2,3,4-tetrahydroquinazolin-7-yl)urea] | 350 nM | 55% |
| CN1C(=O)CCc2ccc(NC(=O)N[C@@H]3CC4(CCCC4)Oc4ccccc43)cc21 [Example 288, 1-[(4R)-3,4-dihydrospiro[chromene-2,1′-cyclopentan]-4-yl]-3-(1-methyl-2-oxo-1,2,3,4-tetrahydroquinolin-7-yl)urea] | 10000 nM | 75% |
| O=C1CCc2ccc(NC(=O)N[C@H]3CCOc4cc(OC(F)(F)F)ccc43)cc2N1 [Example 234, 1-(2-oxo-1,2,3,4-tetrahydroquinolin-7-yl)-3-[(4S)-7-(trifluoromethoxy)-3,4-dihydro-2H-chromen-4-yl]urea] | 90 nM | 27% |
| O=C(Nc1ccc2c(c1)NC(=O)N(CCO)C2)N[C@@H]1CCOc2ccc(F)cc21 [Example 52, 1-[(4R)-6-fluoro-3,4-dihydro-2H-chromen-4-yl]-3-[3-(2-hydroxyethyl)-2-oxo-1,2,3,4-tetrahydroquinazolin-7-yl]urea] | 950 nM | 32% |
| CC1(C)C[C@H](NC(=O)Nc2ccc3c(c2)NC(=O)CC3)c2cc(F)ccc2O1 [Example 243, 1-[(4S)-6-fluoro-2,2-dimethyl-3,4-dihydro-2H-chromen-4-yl]-3-(2-oxo-1,2,3,4-tetrahydroquinolin-7-yl)urea] | 4900 nM | 45% |
| CN1C(=O)NCc2c(NC(=O)N[C@@H]3C[C@](C)(C(F)(F)F)Oc4ccccc43)cccc21 [Example 166, 1-(1-methyl-2-oxo-1,2,3,4-tetrahydroquinazolin-5-yl)-3-[(2R,4R)-2-methyl-2-(trifluoromethyl)-3,4-dihydro-2H-chromen-4-yl]urea] | 1 nM | 10% |
| C[C@@]1(C(F)F)C[C@@H](NC(=O)Nc2ccc3c(c2)NC(=O)CC3)c2ccc(Cl)cc2O1 [Example 212, 1-[(2S,4R)-7-chloro-2-(difluoromethyl)-2-methyl-3,4-dihydro-2H-chromen-4-yl]-3-(2-oxo-1,2,3,4-tetrahydroquinolin-7-yl)urea] | 61 nM | 34% |
| Cn1c(=O)ccc2c(NC(=O)N[C@@H]3C[C@@](C)(C(F)F)Oc4ccccc43)cccc21 [Example 26, 1-[(2S,4R)-2-(difluoromethyl)-2-methyl-3,4-dihydro-2H-chromen-4-yl]-3-(1-methyl-2-oxo-1,2-dihydroquinolin-5-yl)urea] | 25 nM | 54% |
| C[C@@]1(C(F)F)C[C@@H](NC(=O)Nc2ccc3c(c2)NC(=O)CO3)c2ccccc2O1 [Example 130, 1-[(2S,4R)-2-(difluoromethyl)-2-methyl-3,4-dihydro-2H-chromen-4-yl]-3-(3-oxo-3,4-dihydro-2H-1,4-benzoxazin-6-yl)urea] | 1000 nM | 98% |
| CCC1(CC)C[C@@H](NC(=O)Nc2ccc3c(c2)NC(=O)N(C)C3)c2ccccc2O1 [Example 178, 1-[(4R)-2,2-diethyl-3,4-dihydro-2H-chromen-4-yl]-3-(3-methyl-2-oxo-1,2,3,4-tetrahydroquinazolin-7-yl)urea] | 72 nM | 52% |
| CC1(C)C[C@@H](NC(=O)Nc2ccc3c(c2)NC(=O)CC3)c2cccc(F)c2O1 [Example 219, 1-[(4R)-8-fluoro-2,2-dimethyl-3,4-dihydro-2H-chromen-4-yl]-3-(2-oxo-1,2,3,4-tetrahydroquinolin-7-yl)urea] | 56 nM | 29% |
| O=C1CCc2ccc(NC(=O)N[C@@H]3CC(CF)(CF)Oc4cc(C(F)(F)F)ccc43)cc2N1 [Example 320, 1-[(4R)-2,2-bis(fluoromethyl)-7-(trifluoromethyl)-3,4-dihydro-2H-chromen-4-yl]-3-(2-oxo-1,2,3,4-tetrahydroquinolin-7-yl)urea] | 12 nM | 80% |
| CN1C(=O)CCc2ccc(NC(=O)N[C@@H]3C[C@](C)(C(F)F)Oc4ccccc43)cc21 [Example 293, 1-[(2R,4R)-2-(difluoromethyl)-2-methyl-3,4-dihydro-2H-chromen-4-yl]-3-(1-methyl-2-oxo-1,2,3,4-tetrahydroquinolin-7-yl)urea] | 270 nM | 72% |
| CN1C(=O)CCc2ccc(NC(=O)N[C@@H]3CC(CF)(CF)Oc4ccccc43)cc21 [Example 280, 1-[(4R)-2,2-bis(fluoromethyl)-3,4-dihydro-2H-chromen-4-yl]-3-(1-methyl-2-oxo-1,2,3,4-tetrahydroquinolin-7-yl)urea] | 960 nM | 68% |
| CC1(C)C[C@@H](NC(=O)Nc2ccc3c(c2)NC(=O)CO3)c2cc(F)ccc2O1 [Example 113, 1-[(4R)-6-fluoro-2,2-dimethyl-3,4-dihydro-2H-chromen-4-yl]-3-(3-oxo-3,4-dihydro-2H-1,4-benzoxazin-6-yl)urea] | 770 nM | 102% |
